The source of these data is PMC8791477, “Evaluation of SARS-CoV-2 entry, inflammation and new therapeutics in human lung tissue cells” (PLoS Pathogens, 2022).

Where a name gives a salt, the structure may show the parent alone.

In data set [1] the test system is ACE2 expression. Description: Modulation of ACE2 expression in enriched AT-II cells of HLT (flow cytometry). As to conditions: 20h; for ACE2 expression after anti-inflammatory drugs (in words): 100μM to 0.8μM; for ACE2 expression in enriched AT-II cells after immune stimuli (in words): IL-1β 10 ng/ml, IL-10 and GM-CSF 100 ng/ml, IFN 100 U/ml. The format is cell-based, human. How it is done: VeroE6 and lung cells were incubated with five-fold serial dilutions of selected anti-inflammatory compounds (ranging from 100μM to 0.8μM) for 20h. […] For determination of ACE2 expression, the following surface staining antibodies were used: primary goat anti-ACE2 (R&D Systems), anti-CD45 (AF700, BioLegend), anti-EpCAM (APC, BioLegend), and anti-HLA-DR (BV421, BioLegend). For ACE2 detection, cells were then stained with secondary donkey anti-goat IgG (PE, R&D Systems) for 30 min at 4°C. A Fluorescent Minus One control (FMO) without primary anti-ACE2 antibody was used as a control. Cell viability was determined using an AQUA viability dye for flow cytometry (LIVE/DEAD fixable AQUA, Invitrogen). After fixation with PBS 2% PFA, cells were acquired in an LSR Fortessa (BD Biosciences) and analyzed using the FlowJo v10.6.1 software (TreeStar).
(In flow cytometry, cells or beads pass a laser one at a time.)

Data set [2] can be described thus: in vitro. The conditions noted are these: African green monkey.
A short description of data set [3]: in vitro. The conditions noted are these: human, CC50 HLT.
The test system of data set [4] is HLT cells. As to conditions: for CC50: read-out: CC50 HLT, absence of virus.
Data set [5] concerns VeroE6 cells. As to conditions: read-out: CC50 Vero E6; absence of virus.
For data set [6], the system named is COVID-19 patients. As to conditions: cited from earlier work.
The subject of data set [7] is IL-6 and CXCL10 expression. Description: Immunomodulatory capacity: IL-6 and CXCL10 in LPS + IFN-γ stimulated HLT myeloid cells. The format is cell-based, human. As to conditions: 20μM, LPS 50 ng/ml + IFN-γ 100 ng/ml, 20h. How it is done: HLT cells were cultured in a round-bottom 96-well plate containing 20 μM of cepharanthine, ergoloid, ciclesonide, hydroxychloroquine, ivermectin, or camostat mesylate alone or in combination with the stimuli LPS (50 ng/ml) and IFN-γ (100 ng/ml). For each patient, a negative control, cells treated with only medium, and a positive control, cells incubated in the presence of LPS and IFN-γ, were included. Immediately, brefeldin A (BD Biosciences) and monensin (BD Biosciences) were added to cells and cultured overnight at 37°C in 5% CO2. Next day, cellular suspensions were stained with the following antibodies: anti-CD11b (FITC, BioLegend), anti-CD69 (PE-CF594, BD Biosciences), anti-CD14 (APC-H7, BD Biosciences), anti-EpCAM (APC, BioLegend), anti-CD3 (BV650, BD Biosciences), anti-CD45 (BV605, BioLegend), and anti-HLA-DR (BV421, BioLegend). Cells were subsequently fixed and permeabilized using the Cytofix/Cytoperm kit (BD Biosciences) and intracellularly stained with anti-IL-6 (PE-Cy7, BioLegend), and anti-CXCL10 (PE, BioLegend). Cell viability was determined using an AQUA viability dye for flow cytometry (LIVE/DEAD fixable AQUA, Invitrogen). After fixation with PBS 2% PFA, cells were acquired in an LSR Fortessa (BD Biosciences), and data were analyzed using the FlowJo v10.6.1 software (TreeStar).

On to `C[C@]12C=CC(=O)C=C1CC[C@@H]1[C@@H]2C(=O)C[C@@]2(C)[C@H]1CC[C@]2(O)C(=O)CO` [Prednisone], for which the “ACE2 expression after anti-inflammatory drugs (in words)” value in data set [1] was “no effect on ACE2 expression”. Further, the CC50 in data set [2] (CC50 Vero E6, absence of virus) is over 100 µM; in data set [3] (absence of virus), over 100 µM.
Consider `C[C@]12CCC(=O)C=C1CC[C@@H]1[C@@H]2[C@@H](O)C[C@@]2(C)[C@H]1CC[C@]2(O)C(=O)CO` [Cortisol], for which, in data set [1], the “ACE2 expression after anti-inflammatory drugs (in words)” value is on record as “no effect on ACE2 expression”. The CC50 is over 100 µM in data set [2] (CC50 Vero E6, absence of virus) and over 100 µM in data set [3] (absence of virus).
`N[C@@H](CC(=O)N1CCn2c(nnc2C(F)(F)F)C1)Cc1cc(F)c(F)cc1F` [Sitagliptin]: the CC50 in data set [2] (CC50 Vero E6, absence of virus) is over 100 µM; in data set [3] (absence of virus), over 100 µM.
`CCCCCCCCCCCCOS(=O)(=O)[O-].[Na+]` [SLS, Sodium lauryl sulfate]: the CC50 in data set [4] is about 83.2 µM; in data set [5], 87 µM.
For Ivermectin, the “proportion of PCR-positive patients (in words)” value in data set [6] (seven days after treatment) is on record as “failed to show a reduction”. Also, the “expression of cytokines in the HLT inflammation model (in words)” value in data set [7] was “did not affect the expression of cytokines”. The CC50 was about 100 µM in data set [4] and 20.2 µM in data set [5].
For the molecule GM-CSF, the “ACE2 expression in enriched AT-II cells after immune stimuli (in words)” value (“ACE2 expression in enriched AT-II cells” below) in data set [1] is given as “did not impact ACE2 protein production”.
`CCCCCCCCCCCC(=O)OCC(O)CO` (stereo not drawn) [Monolaurin]: the CC50 in data set [4] and in data set [5] was over 100 µM throughout.
Turning to `NC(=O)[C@@H]1CCCN1C(=O)[C@H](Cc1c[nH]cn1)NC(=O)[C@@H]1CCC(=O)N1` [Protilerin], the CC50 in data set [4] and in data set [5] was over 100 µM throughout.
In the case of `C[C@]1(Cn2ccnn2)[C@H](C(=O)O)N2C(=O)C[C@H]2S1(=O)=O` [Tazobactam], the CC50 in data set [2] (CC50 Vero E6, absence of virus) is over 100 µM; in data set [3] (absence of virus) it was over 100 µM.
Turning to `COc1ccc2cc1Oc1ccc(cc1)C[C@H]1c3c(cc4c(c3Oc3cc5c(cc3OC)CCN(C)[C@@H]5C2)OCO4)CCN1C` [Cepharanthine], the “expression of IL-6 in CD11b+CD14+ myeloid cells (in words)” value in data set [7] is listed as “reduced IL-6 production”. Moreover, the CC50 in data set [4] was 16.1 µM; in data set [5] it was 22.4 µM; in data set [2] (CC50 Vero E6, absence of virus), 22.3 µM; in data set [3] (absence of virus), 13.8 µM.
As to `O=C1CN(/N=C/c2ccc([N+](=O)[O-])o2)C(=O)N1` [Nitrofurantoin], the CC50 in data set [2] (CC50 Vero E6) and in data set [3] was over 100 µM each time.
With `Cc1cccn2c(=O)c(-c3nnn[nH]3)cnc12` [Pemirolast, Pemirolast potassium], the CC50 in data set [2] (CC50 Vero E6, absence of virus) is over 100 µM; in data set [3] (absence of virus), over 100 µM.
For `CC(C)[C@H](N)C(=O)OCCOCn1cnc2c(=O)[nH]c(N)nc21` [Valaciclovir], the CC50 in data set [2] (CC50 Vero E6, absence of virus) is over 100 µM; in data set [3] (absence of virus), over 100 µM.
As to `O=C1Nc2ccccc2/C1=C1/Nc2ccccc2C1=O` [Indirubin], the CC50 in data set [2] (CC50 Vero E6) and in data set [3] was over 100 µM each time.
Consider `O=C1C[C@@H](c2ccc(O)c(O)c2)Oc2cc(O)cc(O)c21` [Eriodictyol], for which the CC50 in data set [2] (CC50 Vero E6, absence of virus) was over 100 µM; in data set [3] (absence of virus), over 100 µM.
Regarding IL-1β, the “ACE2 expression in enriched AT-II cells” value in data set [1] is “decreased the fraction of AT-II cells expressing ACE2”.
Take `N#C[C@@H]1CCCN1C(=O)CNC12CC3CC(CC(O)(C3)C1)C2` [Vidagliptin, Vildagliptin]: the CC50 in data set [2] (CC50 Vero E6, absence of virus) is over 100 µM; in data set [3] (absence of virus), over 100 µM.
As to `CCCCCCCCCC(=O)OCC(O)CO` (stereo not drawn) [Monocaprin], the CC50 in data set [4] and in data set [5] was over 100 µM throughout.
For `C[C@H](O)[C@H](O)[C@H]1CNc2nc(N)[nH]c(=O)c2N1` [Tetrahydrobiopterin, Tetrahydrobiopterin dihydrochloride], the CC50 is over 100 µM in data set [2] (CC50 Vero E6, absence of virus) and over 100 µM in data set [3] (absence of virus).
In the case of `Oc1ccc(CC2NCCc3cc(O)c(O)cc32)cc1` (stereo not drawn) [Higenamine, Higenamine hydrochloride], the CC50 in data set [2] (CC50 Vero E6, absence of virus) is over 100 µM; in data set [3] (absence of virus), over 100 µM.
For the molecule `Cc1ccnc(NS(=O)(=O)c2ccc(N)cc2)n1` [Sulfamerazine], the CC50 in data set [2] (CC50 Vero E6, absence of virus) is over 100 µM; in data set [3] (absence of virus), over 100 µM.
As for `O=c1c(O)c(-c2ccc(O)c(O)c2)oc2cc(O)cc(O)c12` [Quercetin], the CC50 in data set [2] (CC50 Vero E6, absence of virus) is over 100 µM; in data set [3] (absence of virus), over 100 µM.
Turning to `CC1(C)[C@@H](O[C@H]2O[C@H](C(=O)O)[C@@H](O)[C@H](O)[C@H]2O[C@@H]2O[C@H](C(=O)O)[C@@H](O)[C@H](O)[C@H]2O)CC[C@]2(C)[C@H]3C(=O)C=C4[C@@H]5C[C@@](C)(C(=O)O)CC[C@]5(C)CC[C@@]4(C)[C@]3(C)CC[C@@H]12` [Glycyrrhizin], the CC50 in data set [2] (CC50 Vero E6, absence of virus) is over 100 µM; in data set [3] (absence of virus), over 100 µM.
As to `CC1(C)Cc2c(-c3ccccc3)c(-c3ccc(Cl)cc3)c(CC(=O)O)n2C1` [Licofelone], the CC50 in data set [2] (CC50 Vero E6, absence of virus) was over 100 µM; in data set [3] (absence of virus) it was about 53.6 µM.
For the molecule `CCCCCCCCCCCC(=O)O` [Lauric acid], the CC50 in data set [4] and in data set [5] was over 100 µM in each case.
For `Cc1cc(O)c2c(=O)c3c(O)cc(O)c4c5c(O)cc(O)c6c(=O)c7c(O)cc(C)c8c1c2c(c34)c(c78)c65` [Hypericin], the CC50 amounted to 4.8 µM in data set [2] (CC50 Vero E6, absence of virus) and 0.14 µM in data set [3] (absence of virus).
In the same order, the values of `CC1=C(CC(=O)O)c2cc(F)ccc2/C1=C\c1ccc([S+](C)[O-])cc1` (stereo not drawn) [Sulindac] are over 100 µM and over 100 µM.
In the same order, the values of `O=c1cc(-c2ccc(O)c(O)c2)oc2cc(O)cc(O)c12` [Luteolin] are over 100 µM and over 100 µM.
Turning to Ergoloid mesylates, the “expression of cytokines in CD11b+CD14+ myeloid cells (in words)” value in data set [7] is reported as “significantly reduced the expression of cytokines”. Further, the “cell toxicity in HLT cells” value in data set [4] (20 μM, 48h) is over 60%. Besides, the CC50 in data set [4] is about 100 µM; in data set [5] it was 18.7 µM.
As for `CC(C)Cc1ccc(C(C)C(=O)O)cc1` (stereo not drawn) [Ibuprofen], the “ACE2 expression after anti-inflammatory drugs (in words)” value in data set [1] is “no effect on ACE2 expression”. Further, the CC50 was over 100 µM in data set [2] (CC50 Vero E6, absence of virus) and over 100 µM in data set [3] (absence of virus).
Regarding `[H]/N=C(/N)N/C(=N/[H])NCCc1ccccc1` [Phenformin], the CC50 in data set [2] (CC50 Vero E6, absence of virus) is over 100 µM; in data set [3] (absence of virus), over 100 µM.
On to `CN(C)C(=N)N=C(N)N` [Metformin], for which the CC50 in data set [2] (CC50 Vero E6, absence of virus) was over 100 µM; in data set [3] (absence of virus), over 100 µM.
Take `Cc1ccc(-c2cc(C(F)(F)F)nn2-c2ccc(S(N)(=O)=O)cc2)cc1` [Celecoxib]: the CC50 was 13 µM in data set [2] (CC50 Vero E6, absence of virus) and about 100 µM in data set [3] (absence of virus).
As to `C[C@@H]1C[C@H]2[C@@H]3CCC4=CC(=O)C=C[C@]4(C)[C@@]3(F)[C@@H](O)C[C@]2(C)[C@@]1(O)C(=O)CO` [Dexamethasone], the “28-day mortality (in words)” value in data set [6] (patients receiving invasive mechanical ventilation) was “decreased”. Further, the CC50 in data set [2] (CC50 Vero E6, absence of virus) was over 100 µM; in data set [3] (absence of virus), over 100 µM.
For `CC(C)C(=O)OCC(=O)[C@@]12O[C@H](C3CCCCC3)O[C@@H]1C[C@H]1[C@@H]3CCC4=CC(=O)C=C[C@]4(C)[C@H]3[C@@H](O)C[C@@]12C` [Ciclesonide], the “expression of CXCL10 in CD11b+CD14- myeloid cells (in words)” value in data set [7] is “induced CXCL10 secretion”. Moreover, the CC50 in data set [2] (CC50 Vero E6, absence of virus) was over 100 µM; in data set [3] (absence of virus), over 100 µM.

B1: IL-10 (protein, UniProt P22301 19-178, looked up)
Interleukin-10: SPGQGTQSENSCTHFPGNLPNMLRDLRDAFSRVKTFFQMKDQLDNLLLKESLLEDFKGYLGCQALSEMIQFYLEEVMPQAENQDPDIKAHVNSLGENLKTLRLRLRRCHRFLPCENKSKAVEQVKNAFNKLQEKGIYKAMSEFDIFINYIEAYMTMKIRN
On to B1, for which, in data set [1], the “ACE2 expression in enriched AT-II cells” value is listed as “did not impact ACE2 protein production”.
